US20240002450A1 (priority 2020, published 2024)
Bridge positions count the residues as written; N and C are the ends. Square brackets hold non-standard residues; d marks the D form. Peptide text beside a SMILES is read from it. S5 = C=CCCC[C@](C)(N)C(=O)O; βAla = NCCC(=O)O

What follows are compounds tested on Makona variant of EBOV.
Format: cell-based, Ebola virus

Compound | antiviral activity (prevention of EBOV infection)
HX1WTKNITX2KINQIIHDFVNK, wherein X1 is (R)-2-(7′-octenyl) alanine and X2 is (S)-2-(4′-pentenyl)Alanine [SEboV-1] | displayed antiviral activity
HX1WTKX2ITDKINQIIHDFVNK, wherein each of X1 and X2 is (S)-2-(4′-pentenyl)Alanine [SEboV-2] | displayed antiviral activity

These compounds were tested on Huh-7 hepatocellular carcinoma cells.

Compound | cell permeability (ability to enter cells)
CC[C@H](C)[C@H](NC(=O)[C@H](CCC(N)=O)NC(=O)[C@H](CC(N)=O)NC(=O)[C@@H](NC(=O)[C@]1(C)CCCC=CCCC[C@](C)(NC(=O)[C@H](CCCCN)NC(=O)[C@@H](NC(=O)[C@H](Cc2c[nH]c3ccccc23)NC(=O)[C@H](CC(N)=O)NC(=O)[C@H](Cc2c[nH]cn2)NC(=O)CCNC(C)=O)[C@@H](C)O)C(=O)N[C@@H]([C@@H](C)CC)C(=O)N[C@@H]([C@@H](C)O)C(=O)N[C@@H](CC(N)=O)C(=O)N1)[C@@H](C)CC)C(=O)N[C@H](C(=O)N[C@@H](Cc1c[nH]cn1)C(=O)N[C@@H](CC(=O)O)C(=O)N[C@@H](Cc1ccccc1)C(=O)N[C@H](C(=O)N[C@@H](CC(N)=O)C(=O)N[C@@H](CCCCN)C(N)=O)C(C)C)[C@@H](C)CC [SEboV-9, HNWTKX1ITNX2INQIIHDFVNK, wherein each of X1 and X2 is (S)-2-(4′-pentenyl)Alanine] (Ac-[βAla]HNWTK[S5]ITN[S5]INQIIHDFVNK-NH2; staple 7-11) | readily penetrated cells
CC[C@H](C)[C@H](NC(=O)[C@H](CCCCN)NC(=O)[C@H](CC(=O)O)NC(=O)[C@@H](NC(=O)[C@@H](NC(=O)[C@H](CC(N)=O)NC(=O)[C@H](CCCCN)NC(=O)[C@@H](NC(=O)[C@H](Cc1c[nH]c2ccccc12)NC(=O)[C@H](CC(=O)O)NC(=O)[C@H](Cc1c[nH]cn1)NC(=O)CCNC(C)=O)[C@@H](C)O)[C@@H](C)CC)[C@@H](C)O)C(=O)N[C@@H](CC(=O)O)C(=O)N[C@@H](CCC(N)=O)C(=O)N[C@H](C(=O)N[C@H](C(=O)N[C@@H](Cc1c[nH]cn1)C(=O)N[C@@H](CC(=O)O)C(=O)N[C@@H](Cc1ccccc1)C(=O)N[C@H](C(=O)N[C@@H](CC(=O)O)C(=O)N[C@@H](CCCCN)C(N)=O)C(C)C)[C@@H](C)CC)[C@@H](C)CC [WT EboV, reference compound] | not cell permeable

The compounds below were run on Zaire Ebola virus.
Format: cell-based

Compound | infected cells after 24 hours of infection | inhibition of virus infection at six hours post-infection
HDWTKNITDKIX1QIIX2DFVDK, wherein each of X1 and X2 is (S)-2-(4′-pentenyl)Alanine [Ac9] | almost no infected cells | inhibited the virus
HDWTX1NIX2DKIX3QIIHDFVDK, wherein X1 is (S)-2-(4′-pentenyl)Alanine, X2 is 2,2-bis(4-pentenyl)glycine, and X3 is (S)-2-(4′-pentenyl)Alanine [Ac5] | almost no infected cells | inhibited the virus
HX1WTKX2ITDKIDQIIHDFVDK, wherein each of X1 and X2 is (S)-2-(4′-pentenyl)Alanine [Ac3] | almost no infected cells | inhibited the virus
X1DWTKNIX2DKIDQIIHDFVDK, wherein X1 is (R)-2-(7′-octenyl) alanine and X2 is (S)-2-(4′-pentenyl)Alanine [Ac4] | almost no infected cells | inhibited the virus
